# Laboratory results as given in paper PMC8694169 (Microbiology Spectrum, 2021).
# Read-outs that look alike come from different tables or passages of the source. Where a SMILES comes first, the peptide text is derived from it. Where no end group is shown, it is not given here.
# Columns and labels:
# HLA-A*24:02 [1] = target: T1, HLA-A*24:02 (Homo sapiens, UniProt P04439, D101N/D140Y/D185E/E176V/E190D/F33S/G103R/G107R/I119L/I121M/I306V/K335N/L105A/L180Q/L300P/N151K/N90K/Q86E/Q94H/R106L/R138H/R89G/T104I/T345S/V100E/W191G/Y123F); assay: cell-based; type: binding
# [2] = system: IFN-γ-producing CD8+ T cells; assay: Intracellular IFN-γ staining (ICS) of spleen CD8+ T cells after immunization with liposomal peptides; type: in vivo, HLA-A*24:02 transgenic mice; conditions: mice immunized with liposomal peptides + CpG; result in words
# human lymphocytes = conditions: epitopes of same sequence submitted as HLA-A*24:02-restricted pp1a-specific CTL epitopes; ref Virus Pathogen Database and Analysis Resource; cited from earlier work
# HLA-A*24:02 [3] = target: T1, HLA-A*24:02; conditions: ref Virus Pathogen Database and Analysis Resource; cited from earlier work
# IFN-γ+ CD8+ T cells = assay: Comparison of conserved top 4 peptides, ICS after immunization with 4-peptide mixture in liposomes; type: in vivo, HLA-A*24:02 transgenic mice; conditions: eight mice immunized with mixture of pp1a-1417, -3104, -3792, -4229 in liposomes with CpG; spleen cells + peptide 5 h; one-way ANOVA; Fig. 5A
# CD107a+ CD8+ T cells = assay: Comparison of conserved top 4 peptides, CD107a on CD8+ T cells; type: in vivo, HLA-A*24:02 transgenic mice; conditions: eight mice immunized with 4-peptide mixture in liposomes with CpG; spleen cells + 50 μM peptide 6 h; one-way ANOVA; Fig. 5B
# [4] = […], mean ± SD, triplicate, repeated twice, ND = not detected, read-out: BL50 (half-maximal binding level, peptide concentration that yields 50% relative binding)
Compound,EC50 (HLA-A*24:02 [1]; [4]),detection of IFN-γ-producing CD8+ T cells in immunized mice [2],other results
AYILFTRFF [pp1a-2330],0.8 ± 0.1 µM,significant numbers,result in T cell assays using human lymphocytes (human lymphocytes): positive
MFVKHKHAF [pp1a-3627],241 ± 33.6 µM,,
MYASAVVLL [pp1a-3684],0.4 ± 0.1 µM,significant numbers,result in T cell assays using human lymphocytes (human lymphocytes): negative; result in the binding assay (HLA-A*24:02 [3]): positive
YYHTTDPSF [pp1a-1634],0.04 µM,,
LYDKLVSSF [pp1a-1182],1 ± 0.3 µM,significant numbers,result in T cell assays using human lymphocytes (human lymphocytes): positive
YYKKDNSYF [pp1a-1899],0.3 µM,significant numbers,result in T cell assays using human lymphocytes (human lymphocytes): positive
FYWFFSNYL [pp1a-3153],3.9 ± 1.3 µM,significant numbers,
SYLFQHANL [pp1a-1733],3 ± 0.4 µM,,
GYKSVNITF [pp1a-835],0.1 µM,significant numbers,
YFTEQPIDL [pp1a-1906],113 ± 9.4 µM,,
IYLYLTFYL [pp1a-3108],100 ± 13.8 µM,,
KFLTENLLL [pp1a-1247],33.4 ± 1.9 µM,,
TFDNLKTLL [pp1a-1552],96.1 ± 1.6 µM,,
YYTSNPTTF [pp1a-1536],0.05 µM,,
AFYILPSII [pp1a-1352],64.4 ± 9.2 µM,,
CC(C)C[C@H](NC(=O)[C@H](CC(C)C)NC(=O)[C@H](CS)NC(=O)[C@H](Cc1ccccc1)NC(=O)[C@H](CC(C)C)NC(=O)CNC(=O)[C@H](Cc1ccccc1)NC(=O)[C@H](Cc1ccc(O)cc1)NC(=O)[C@@H](N)CS)C(=O)O [pp1a-3792] (H-CYFGLFCLL-OH; N-terminus and C-terminus assumed),,significant numbers,
AFLPFAMGI [pp1a-3610],183 ± 8.2 µM,,
MFTPLIQPI [pp1a-3030],251 ± 88.7 µM,,
TFCAGSTFI [pp1a-2457],127 ± 20.2 µM,,
AFEKMVSLL [pp1a-3907],114 ± 3.1 µM,,
IFGTVYEKL [pp1a-616],122 ± 18 µM,,

Compound,EC50 (HLA-A*24:02 [1]; [4]),detection of IFN-γ-producing CD8+ T cells in immunized mice [2],other results
SYSGQSTQL [pp1a-1515],45.8 ± 10.5 µM,,
PFWITIAYI [pp1a-3137],103 ± 8.4 µM,,
AFGLVAEWF [pp1a-2320],135 ± 39.1 µM,,
AFVETVKGL [pp1a-486],278 ± 49.8 µM,,
YYRSLPGVF [pp1a-3010],122 ± 18.8 µM,,
MFLARGIVF [pp1a-3752],24.2 ± 1.5 µM,significant numbers,
FFSYFAVHF [pp1a-2350],1.4 ± 0.1 µM,significant numbers,
LFVAAIFYL [pp1a-2781],183 ± 8.2 µM,,
GYVTHGLNL [pp1a-1451],109 ± 8.9 µM,,
YFIKGLNNL [pp1a-4229],32.1 ± 1.9 µM,significant numbers,
LYIDINGNL [pp1a-1255],40.4 ± 8.6 µM,significant numbers,
TFHLDGEVI [pp1a-1543],100 ± 6.8 µM,,
FYLTNDVSF [pp1a-3114],0.01 µM,significant numbers,result in T cell assays using human lymphocytes (human lymphocytes): negative; result in the binding assay (HLA-A*24:02 [3]): positive
DYLVSTQEF [pp1a-3812],,,EC50 (HLA-A*24:02 [1]; SD): 0.9 ± 0.1 µM
SYGADLKSF [pp1a-135],104 ± 17.7 µM,,
KYLYFIKGL [pp1a-4226],,,EC50 (HLA-A*24:02 [1]; SD): 109 ± 1.3 µM
FYENAFLPF [pp1a-3606],0.02 ± 0.01 µM,significant numbers,
LFLMSFTVL [pp1a-3084],100 ± 7.6 µM,,
QYELKHGTF [pp1a-1813],141 ± 8 µM,,
TFNGECPNF [pp1a-265],1.7 ± 0.4 µM,significant numbers,result in T cell assays using human lymphocytes (human lymphocytes): positive
DYKHYTPSF [pp1a-1971],58.4 ± 11.7 µM,,

Compound,EC50 (HLA-A*24:02 [1]; [4]),detection of IFN-γ-producing CD8+ T cells in immunized mice [2],other results
VYEKLKPVL [pp1a-620],264 ± 21.4 µM,,
PYCYDTNVL [pp1a-2931],6.8 ± 1 µM,,
WFLLLSVCL [pp1a-2232],279 ± 12.6 µM,,
QYGRSGETL [pp1a-96],124 ± 10.9 µM,,
DYGARFYFY [pp1a-1417],16.1 ± 0.8 µM,significant numbers,
NFTIKGSFL [pp1a-3396],134 ± 7.6 µM,,
NYLKRRVVF [pp1a-3159],114 ± 5.3 µM,,
KFKEGVEFL [pp1a-634],79.6 ± 6.6 µM,significant numbers,
DFVKATCEF [pp1a-335],127 ± 3.8 µM,,
FYVLGLAAI [pp1a-2338],0.7 ± 0.1 µM,significant numbers,
MFDAYVNTF [pp1a-2590],7.7 ± 0.6 µM,significant numbers,
NFSKLINII [pp1a-2222],181 ± 32.5 µM,,
NFNQHEVLL [pp1a-1137],55.3 ± 2 µM,,
DYQGKPLEF [pp1a-954],126 ± 23.9 µM,,
VYSVIYLYL [pp1a-3104],0.5 µM,significant numbers,dominance in induction of peptide-specific IFN-γ+ CD8+ T cells among conserved top 4 peptides (IFN-γ+ CD8+ T cells): far superior to all other peptides; dominance in CD107a induction of CD8+ T cells among conserved top 4 peptides (CD107a+ CD8+ T cells): statistically predominant over pp1a-1417 and -4229; result in T cell assays using human lymphocytes (human lymphocytes): negative; result in the binding assay (HLA-A*24:02 [3]): positive
VFLFVAAIF [pp1a-2779],8.6 ± 0.4 µM,significant numbers,
TFFKLVNKF [pp1a-677],55.9 ± 3.3 µM,,
KFVCDNIKF [pp1a-1929],61.7 ± 1.6 µM,,
LYCIDGALL [pp1a-1845],38.5 ± 8.2 µM,significant numbers,
